Source: patent US9604998B2, “Inhibitors of the renal outer medullary potassium channel” (MERCK SHARP & DOHME CORP., priority 2013, dated 2017)
Where a name gives a salt, the structure may show the parent alone. Read-outs that look alike come from different tables or passages of the source.

How the values were obtained:
[1] = target: hROMK (hKir1.1) (Homo sapiens (Human), UniProt P48048); assay: Thallium Flux Assay (ROMK channel functional thallium flux, FLIPR-Tetra); type: cell-based
Method: HEK293 cells stably expressing hROMK (hKir1.1) were grown at 37° C. in a 10% CO2 humidified incubator in complete growth media: Dulbecco's Modified Eagle Medium supplemented with non-essential amino acids, Penicillin/Streptomycin/Glutamine, G418 and FBS. At >80% confluency, aspirate the media from the flask and rinse with 10 mL Calcium/Magnesium-free PBS. […] To dislodge the cell, gently bang the side of the flask with your hand. Triturate the cells completely and then transfer the cells to 25 mL complete media. Centrifuge at 1,500 rpm for 6 min followed by resuspension in complete growth media and determine cell concentration.
Compound Buffer (per microplate): 20 mL Probenecid/Assay Buffer; 0.3 mM ouabain (10 mM ouabain in water can be stored in amber bottle/aluminum foil at room temperature); Test compound
Stimulant Buffer (prepared at 5× final concentration in 1× FluxOR™ Chloride-Free Buffer): 7.5 mM Thallium sulfate and […] (to give a final assay concentration of 3 mM Thallium/0.3 mM Potassium). Store at 4° C. when not in use. If kept sterile, this solution is good for months.
The ROMK channel functional thallium flux assay is performed in 384 wells, using the FLIPR-Tetra instrument. HEK-hKir1.1 cells are seeded in Poly-D-Lysine microplates and kept in a 37° C.-10% CO2 incubator overnight. On the day of the experiment, the growth media is replaced with the FluxOR™ reagent loading buffer and incubated, protected from light, at ambient temperature (23-25° C.) for 90 min. The loading buffer is replaced with assay buffer±test compound followed by 30 min incubation at ambient temperature, where the Thallium/Potassium stimulant is added to the microplate.
1. Seed HEK-hKir1.1 cells (50 μl at 20,000 cells/well) in 384-well PDL coated Microplates
2. Allow cells to adhere overnight in humidified 37° C./10% CO2 incubator
3. Completely remove cell growth media from microplate and replace with 25 μl loading buffer
4. Incubate Microplate at room temperature, protected form light, for 90 min
5. Remove loading buffer and replace with 25 μl 1× Assay Buffer±test compound.
6. Incubate microplate at room temperature, protected from light, for 30 min
7. […] Excitation=400 nm, Emission=460 & 580 nm. Collect data for ˜10 min.
The fluorescence intensity of wells containing 3 μM of a standard control ROMK inhibitor of the present invention is used to define the ROMK-sensitive component of thallium flux. Fluorescence in the presence of test compounds is normalized to control values to provide % fluorescence change.

[2] = target: Kir1.1 (ROMK1) (Homo sapiens (Human), UniProt P48048); assay: Electrophysiology Assay (whole cell voltage clamp, IonWorks Quattro); type: cell-based; settings: block during voltage step to 0 mV
Kir1.1 (ROMK1), sequence (P48048 whole entry, species assumed): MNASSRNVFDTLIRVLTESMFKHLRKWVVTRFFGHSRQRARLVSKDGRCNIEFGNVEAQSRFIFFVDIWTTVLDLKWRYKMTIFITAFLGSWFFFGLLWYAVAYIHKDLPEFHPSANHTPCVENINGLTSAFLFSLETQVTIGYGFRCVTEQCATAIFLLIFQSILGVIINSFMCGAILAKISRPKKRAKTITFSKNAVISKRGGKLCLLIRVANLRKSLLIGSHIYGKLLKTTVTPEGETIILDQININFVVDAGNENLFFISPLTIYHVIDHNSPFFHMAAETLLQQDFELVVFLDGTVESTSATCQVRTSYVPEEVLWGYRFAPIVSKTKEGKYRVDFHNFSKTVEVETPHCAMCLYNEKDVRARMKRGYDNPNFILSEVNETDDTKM
Method: Chinese hamster ovary cells stably expressing Kir1.1 channels were maintained in T-75 flasks in cell culture media in a humidified 10% CO2 incubator at 37° C. Prior to an experiment, Kir1.1 expression was induced by overnight incubation with 1 mM sodium butyrate. […] After centrifugation, the cell pellet was resuspended in approximately 4.0 mL of bath solution and placed in the IonWorks instrument. The intracellular solution consisted of (in mM): 80 K gluconate, 40 KCl, 20 KF, 3.2 MgCl2, 3 EGTA, 5 Hepes, pH 7.4. Electrical access to the cytoplasm was achieved by perforation in 0.13 mg/mL amphotericin B for 4 min. […] Voltage protocols and current recordings were performed using the IonWorks HT software/hardware system. Currents were sampled at 1 kHz. No correction for liquid junction potentials was used. The test pulse, consisting of a 100 ms step to 0 mV from a holding potential of −70 mV, followed by a 100 ms voltage ramp from −70 mV to +70 mV, was applied before and after a 6 min compound incubation period. Test compounds were prepared by diluting DMSO stock solutions into the bath solution at 3× the final concentration and placed in the instrument in 96-well polypropylene plates. Current amplitudes were measured using the IonWorks software.

[3] = HEK293 cells stably expressing hROMK (hKir1.1), read-out: Thallium Flux IC50
[4] = Chinese hamster ovary cells stably expressing Kir1.1, read-out: Electrophysiology IC50

hROMK (hKir1.1), sequence (P48048 whole entry): as the sequence (P48048 whole entry, species assumed) above

| Structure (SMILES) | IC50 [1, 3] [nM] | IC50 [2, 4] [nM] | IC50 ([1]; Thallium Flux IC50, HEK293 cells stably expressing hROMK (hKir1.1)) [nM] | IC50 ([2]; Electrophysiology IC50, Chinese hamster ovary cells stably expressing Kir1.1) [nM] |
| --- | --- | --- | --- | --- |
| Cc1c([C@@H]2CN3CCN(CCc4ccc5c(c4)CC(C)OC5=O)C[C@H]3CO2)ccc2c1COC2=O (stereo partly drawn) [Example 81] | 90 | 120 | – | – |
| Cc1c(CCN2CCN3C[C@H](c4ccc5c(c4)COC5=O)OC[C@@H]3C2)ccc2c1COC2=O [Example 70] | 120 | 30 | – | – |
| Cc1cc2c(cc1C(O)CN1CCN3C[C@@H](c4ccc(F)c(C#N)c4C)OC[C@@H]3C1)COC2=O (single isomer, unassigned) [Example 24, trifluoroacetate] | – | – | 450 | 240 |
| COc1cc(C(O)CN2CCN3C[C@@H](c4ccc5c(c4C)COC5=O)OC[C@@H]3C2)cc(F)c1C#N (single isomer, unassigned) [Example 54] | 340 | 170 | – | – |
| COc1cc([C@H]2CN3CCN(C[C@H](O)c4ccc5c(c4C)COC5=O)C[C@@H]3CO2)ccc1C#N [Example 1, 4-{(3S,9aR)-8-[(2R)-2-hydroxy-2-(4-methyl-1-oxo-1,3-dihydro-2-benzofuran-5-yl)ethyl]octahydropyrazino[2,1-c][1,4]oxazin-3-yl}-2-methoxybenzonitrile] | 220 | 110 | – | – |
| Cc1c([C@@H]2CN3CCN(CCc4ccc5c(c4C)COC5=O)C[C@H]3CO2)ccc(F)c1C#N [Example 80] | 60 | 50 | – | – |
| COc1cc([C@H]2CN3CCN(C[C@H](O)c4ccc5c(c4C)COC5=O)C[C@@H]3CO2)cc(F)c1C#N [Example 53, (3S,9aR)-3-(4-cyano-3-fluoro-5-methoxyphenyl)-8-[(2R)-2-hydroxy-2-(4-methyl-1-oxo-1,3-dihydro-2-benzofuran-5-yl)ethyl]octahydropyrazino[2,1-c][1,4]oxazin-8-ium chloride] | 240 | 80 | – | – |
| Cc1c([C@@H]2CN3CCN(CCc4ccc5c(c4)C[C@H](C)OC5=O)C[C@H]3CO2)ccc2c1COC2=O [Example 86] | 80 | 80 | – | – |
| COc1cc(C(O)CN2CCN3C[C@@H](c4ccc5c(c4)COC5=O)OC[C@@H]3C2)c(Cl)cc1C#N (stereo partly drawn) [Example 10, (3R,9aS)-8-[2-(2-chloro-4-cyano-5-methoxyphenyl)-2-hydroxyethyl]-3-(1-oxo-1,3-dihydro-2-benzofuran-5-yl)octahydropyrazino[2,1-c][1,4]oxazin-5-ium trifluoroacetate] | 550 | 130 | – | – |
| COc1c(C#N)ccc(CCN2CCN3C[C@@H](c4ccc5c(c4C)COC5=O)OC[C@@H]3C2)c1C [Example 82] | 60 | 80 | – | – |
| Cc1c([C@H]2CN3CCN(CC(C)c4ccc5c(c4)COC5=O)C[C@H]3CO2)ccc2c1COC2=O (stereo partly drawn) [Example 66] | 170 | 140 | – | – |
| Cc1c([C@@H]2CN3CCN(C[C@H](O)c4ccc5c(c4C)COC5=O)C[C@H]3CO2)ccc2c1COC2=O [Example 3, 5-((R)-1-hydroxy-2-((3R,9aS)-3-(4-methyl-1-oxo-1,3-dihydroisobenzofuran-5-yl)hexahydropyrazino[2,1-c][1,4]oxazin-8(1H)-yl)ethyl)-4-methylisobenzofuran-1(3H)-one] | 120 | 50 | – | – |
| COc1c([C@@H]2CN3CCN(C[C@H](O)c4ccc5c(c4C)COC5=O)C[C@H]3CO2)ccc(C#N)c1F [Example 30, (3R,9aS)-3-(4-cyano-3-fluoro-2-methoxyphenyl)-8-[(2R)-2-hydroxy-2-(4-methyl-1-oxo-1,3-dihydro-2-benzofuran-5-yl)ethyl]octahydropyrazino[2,1-c][1,4]oxazin-8-ium chloride] | 230 | – | – | – |
| Cc1c([C@@H]2CN3CCN(CC4OCCc5c4ccc4c5COC4=O)C[C@H]3CO2)ccc2c1COC2=O (stereo partly drawn) [Example 109, 6-{[(3R,9aS)-3-(4-methyl-1-oxo-1,3-dihydro-2-benzofuran-5-yl)hexahydropyrazino[2,1-c][1,4]oxazin-8(1H)-yl]methyl}-8,9-dihydro-1H-furo[3,4-f]isochromen-3(6H)-one] | – | 50 | – | – |
| COc1cc(F)c(CCN2CCN3C[C@@H](c4ccc5c(c4C)COC5=O)OC[C@@H]3C2)cc1C#N [Example 84] | – | 50 | – | – |
| O=C1OCc2cc(CCN3CCN4C[C@@H](c5ccc6c(c5)COC6=O)OC[C@@H]4C3)ccc21 [Example 62] | – | 40 | – | – |
| COc1cc(CCN2CCN3C[C@@H](c4ccc5c(c4)C[C@H](C)OC5=O)OC[C@@H]3C2)ccc1C#N [Example 85] | – | 90 | – | – |
| Cc1c([C@@H]2CN3CCN(CC(O)c4cccc(-n5cnnn5)c4)C[C@@H]3CO2)ccc(F)c1C#N (single isomer, unassigned) [Example 23] | 320 | – | – | – |
| Cc1c([C@@H]2CN3CCN(C[C@H](O)c4ccc5c(c4C)COC5=O)C[C@H]3CN2)ccc(F)c1C#N [Example 102, 6-fluoro-3-((3R,9aR)-8-((R)-2-hydroxy-2-(4-methyl-1-oxo-1,3-dihydroisobenzofuran-5-yl)ethyl)octahydro-1H-pyrazino[1,2-a]pyrazin-3-yl)-2-methylbenzonitrile] | 210 | – | – | – |
| COc1c([C@@H]2CN3CCN(C[C@@H](O)c4ccc5c(c4C)COC5=O)C[C@H]3CO2)ccc(C#N)c1F [Example 31, (3R,9aS)-3-(4-cyano-3-fluoro-2-methoxyphenyl)-8-[(2S)-2-hydroxy-2-(4-methyl-1-oxo-1,3-dihydro-2-benzofuran-5-yl)ethyl]octahydropyrazino[2,1-c][1,4]oxazin-8-ium chloride] | 650 | – | – | – |
| Cc1nc(-n2cnnn2)ccc1C(O)CN1CCN2C[C@@H](c3ccc(F)c(C#N)c3C)OC[C@@H]2C1 (single isomer, unassigned) [Example 21] | 260 | – | – | – |
| COc1cc(CCN2CCN3C[C@H](c4ccc5c(c4C)COC5=O)OC[C@@H]3C2)ccc1C#N [Example 60] | – | 180 | – | – |
| COc1cc(CCN2CCN3C[C@H](c4ccc5c(c4)COC5=O)OC[C@@H]3C2)ccc1C#N [Example 59] | – | 40 | – | – |
| COc1cc(CCN2CCN3C[C@@H](c4ccc5c(c4)COC5=O)OC[C@@H]3C2)ccc1C#N [Example 58] | – | 120 | – | – |
| COc1cc(C(O)CN2CCN3C[C@@H](c4ccc5c(c4C)COC5=O)OC[C@@H]3C2)c(Cl)cc1C#N (stereo partly drawn) [Example 9, (3R,9aS)-8-[2-(2-chloro-4-cyano-5-methoxyphenyl)-2-hydroxyethyl]-3-(4-methyl-1-oxo-1,3-dihydro-2-benzofuran-5-yl)octahydropyrazino[2,1-c][1,4]oxazin-5-ium chloride] | 430 | – | – | – |
| Cc1c(CCN2CCN3C[C@@H](c4ccc5c(c4C)COC5=O)OC[C@H]3C2)ccc2c1COC2=O [Example 68] | – | 140 | – | – |
| COc1cc([C@H]2CN3CCN(CCc4ccc5c(c4C)COC5=O)C[C@H]3CO2)ccc1C#N [Example 74] | – | 80 | – | – |
| Cc1c(CCN2CCN3C[C@H](c4ccc5c(c4C)COC5=O)OC[C@H]3C2)ccc2c1COC2=O [Example 67] | – | 70 | – | – |
| Cc1c([C@H]2CN3CCN(CCc4ccc5c(c4C)COC5=O)C[C@@H]3CO2)ccc(F)c1C#N [Example 77] | – | 70 | – | – |
| Cc1c([C@@H]2CN3CCN(CCc4ccc5c(c4C)COC5=O)C[C@@H]3CO2)ccc(F)c1C#N [Example 78] | – | 70 | – | – |
